Data reported in PMC6085350, “Small molecule inhibitors of RAS-effector protein interactions derived using an intracellular antibody fragment” (Nature Communications, 2018).
Converted amounts (≈) assume the structure as drawn. Values belong to the molecule of their own block, whether it stands above or below them.

Legend:
KRAS^G12V-GppNHp = biological target: T1, KRAS^G12V-GppNHp (Homo sapiens, UniProt P01116, G12V); experiment: SPR binding to KRAS G12V-GppNHp; details: 100 μM, run in triplicate
T1 construct: made in house; host or cells: E. coli (pGEX-2T; strain named only for the HRAS plasmids)
Method: A BIAcore T100 (GE Healthcare) was used to screen the fragment library for RAS binders. A polyclonal goat anti-GST antibody (GE Healthcare) was immobilized on a CM5 sensor chip (GE Healthcare) by the amine coupling method. To immobilize the antibody on CM5 chip, the chip was first activated by injecting 100 µl mixture of 0.2 M EDC (N-ethyl-N-(dimethylaminopropyl) carbodiimide hydrochloride) and 0.05 M NHS (N-hydroxysuccinimide) at 10 µl/min flow rate. Furthermore, 100 µg/ml anti-GST antibody in 10 mM sodium acetate, pH 5.0 was injected at 5 µl/min for 900 s and immobilized until 20,000 ~ 25,000 RU. After immobilization the chip was immediately inactivated by injecting 1 M ethanolamine, pH 8.5 at 10 µl/min for 600 s. The chip was kept running in the HBS buffer (GE Healthcare) comprising 10 mM HEPES, pH 8.0, 150 mM NaCl. Of all, 5 µg/ml recombinant GST, GST-HRAS^G12V-GTPγS or GST-HRAS^G12V-GDP proteins were injected into flow cell Fc4, Fc2 and Fc3, respectively for trapping through the immobilized anti-GST antibody. The GST-HRAS^G12V-GTPγS, GST-KRAS^G12V-GppNHpp, or GST-HRAS^G12V-GDP proteins were injected at 5 µl/min for 900 s and usually reached approximately 2000–2500 RU. The GST was injected at same flow rate until about 1200–1350 RU which is 0.54 times less than the GST-HRAS^G12V-GTPγS or GST-HRAS-GDP capture amounts, taking into consideration relative molecular weights (GST, 26KDa, GST-RAS, 48KDa, respectively). Before fragment library screening, the running buffer was replaced by 20 mM Tris, pH 8, 150 mM NaCl, 5 mM MgCl2, 5% DMSO. DMSO solvent correction curves were generated by injecting the running buffers with serial concentrations of DMSO ranging from 4.5 to 6%. […] The individual compounds were injected at 30 µl for 60 s at 30 µl/min flow rate over flow cells Fc1, Fc2, Fc3 and Fc4. The captured GST and GST-RAS were removed from the chip by rinsing with 40 µl 10 mM glycine-HCl, pH 2.1 at 20 µl/min flow rate after every 48 compounds sequential injection. The chip was regenerated by injecting new GST and GST-RAS proteins as described above.

GST-HRAS^G12V-GDP = biological target: T2, GST-HRAS^G12V-GDP (Homo sapiens, UniProt P01112, G12V); experiment: SPR binding to GDP-bound HRAS; details: 3 to 2000 μM range
T2 construct: expression of HRAS (1-166) HRAS^G12V or KRAS^G12V cDNA cloned into the pGEX-2T vector; made in house; host or cells: E. coli C41(DE3)
Method: (§1) A BIAcore T100 (GE Healthcare) was used to screen the fragment library for RAS binders. A polyclonal goat anti-GST antibody (GE Healthcare) was immobilized on a CM5 sensor chip (GE Healthcare) by the amine coupling method. To immobilize the antibody on CM5 chip, the chip was first activated by injecting 100 µl mixture of 0.2 M EDC (N-ethyl-N-(dimethylaminopropyl) carbodiimide hydrochloride) and 0.05 M NHS (N-hydroxysuccinimide) at 10 µl/min flow rate. Furthermore, 100 µg/ml anti-GST antibody in 10 mM sodium acetate, pH 5.0 was injected at 5 µl/min for 900 s and immobilized until 20,000 ~ 25,000 RU. After immobilization the chip was immediately inactivated by injecting 1 M ethanolamine, pH 8.5 at 10 µl/min for 600 s. The chip was kept running in the HBS buffer (GE Healthcare) comprising 10 mM HEPES, pH 8.0, 150 mM NaCl. Of all, 5 µg/ml recombinant GST, GST-HRAS^G12V-GTPγS or GST-HRAS^G12V-GDP proteins were injected into flow cell Fc4, Fc2 and Fc3, respectively for trapping through the immobilized anti-GST antibody. The GST-HRAS^G12V-GTPγS, GST-KRAS^G12V-GppNHpp, or GST-HRAS^G12V-GDP proteins were injected at 5 µl/min for 900 s and usually reached approximately 2000–2500 RU. […]

[1] = biological target: T3, GST-HRAS^G12V-GTPγS-anti-RAS single chain Fv (scFv) (Homo sapiens, UniProt P01112, G12V); experiment: Competitive SPR (cSPR) with anti-RAS scFv bound to HRAS; format: binding; details: 3 to 2000 μM range
T3 construct: expression of HRAS (1-166) HRAS^G12V or KRAS^G12V cDNA cloned into the pGEX-2T vector; made in house; host or cells: E. coli C41(DE3)
Method: For competitive SPR (cSPR) assays between anti-RAS scFv and candidate fragment binder, after immobilizing anti-GST polyclonal antibody was immobilized on CM5 sensor chip as described above, then 5 µg/ml GST-HRAS-GTPγS protein was injected at 5 µl/min for 900 s to flow cells Fc2 and 4 and 5 µg/ml GST-HRAS-GDP to Fc3. Following GST-HRAS capture on the flow cells, 5 µg/ml anti-RAS scFv Y6-204 was injected at 5 µl/min for 900 s only to Fc4 until reaching an additional 1500–1800 RU, which is theoretically when all GST-HRAS-GTPγS should be bound to anti-RAS scFv with 1:1 interaction stoichiometry. After completing anti-RAS scFv injection, the sensograms were confirmed to be stable (i.e. anti-RAS scFv was not dissociated from GST-HRAS-GTPγS on Fc4). […]

GST-HRAS^G12V-GTPγS = biological target: T4, GST-HRAS^G12V-GTPγS (Homo sapiens, UniProt P01112, G12V); experiment: SPR binding to immobilized GST-HRAS G12V-GTPγS
T4 construct: expression of HRAS (1-166) HRAS^G12V or KRAS^G12V cDNA cloned into the pGEX-2T vector; made in house; host or cells: E. coli C41(DE3)
Method: as §1
The corresponding kinetic […], were determined using steady-state analysis of the compounds’ binding affinities, assuming 1:1 ligand-protein stoichiometry. […]

Solubility = format: physicochemical
RAS-effector PPI = experiment: RAS biosensor BRET assay (partners not specified); format: cell-based, human
Method: The BRET assay was carried out as described elsewhere. A total of 650,000 HEK293T were seeded in each well of a six well plate. Approximately, 24 h later, cells were transfected with an appropriated BRET-based RAS biosensor (i.e. RAS-effector) using Lipofectamine 2000 transfection reagent (Thermo-Fisher). Cells were detached 24 h later and washed with PBS and seeded in a white 96 well plate (clear bottom, PerkinElmer, cat#6005181) in OptiMEM no phenol red medium (Life Technologies) complemented with 4% FBS. Cells were left for 4 h at 37 °C before adding compounds. […] The final concentrations in the cells were 0, 5, 10 and 20 μM (therefore the intermediate 10X concentrations were 0, 50, 100 and 200 μM. Furthermore, 10 μl of 10X compounds were added in each well of the 96 well plate to 0, 5, 10 and 20 μM final concentrations (with final 0.2% DMSO each). Quadruplicates were performed for each point. Cells were left for an additional 20 h at 37 °C before the BRET2 signal reading directly after addition of Coelenterazine 400a substrate (10 μM final) to cells (Cayman Chemicals, cat#16157). BRET2 reading was carried out on an Envision instrument (2103 Multilabel Reader, PerkinElmer) with the BRET2 Dual Emission optical module (515 nm ± 30 and 410 nm ± 80; PerkinElmer).

HT1080 cells (NRAS^Q61K) = experiment: Cell viability (CellTiterGlo), HT1080; format: cell-based, human; details: HT1080, 0–20 μM, up to 72 h
Method: (§2) Fig. 5 Abd-7 results on RAS-dependent signalling pathways and cell viability. a, b DLD-1 (a) or H358 (b) cells were serum-starved for 24 h, incubated in mono-layer with Abd-7 in a range from 2, 5, 10 and 20 μM for 3 h and stimulated with EGF 10 min. Proteins were extracted and separated by SDS-PAGE and transferred to membranes for Western analysis with anti-pAKT, anti-pERK, anti-pan AKT and anti-pan ERK. Anti-cyclophilin B antibody was the loading control. Signal was developed using standard ECL. c–e Effects of compounds Abd-2, Abd-4, Abd-5, Abd-6, and Abd-7 on the viability of human cancer cells lines was assessed for a 2-D culture of DLD-1 (mutant KRAS^G13D) cells and HT1080 cells (mutant NRAS^Q61K). The cells were treated with a dose range from 0 μM to 20 μ and incubated for 72 h when cell viability was assessed using CellTitreGlo. […] Each experiment was repeated at least three times (a, b) and four times (c, d). Where error bars are presented, they correspond to mean values ± SD of biological repeats […]
(§3) Cancer cell lines were in seeded in ViewPlates-96 microplates (PerkinElmer). DLD-1 cells were plated at 10,000 cells per well and HT1080 cells at 7500 cells per well and cultured in DMEM, high glucose, GlutaMAX media containing 10% FBS at 37 °C in 5% CO2 atmosphere. Cells were cultured overnight and the compounds (dissolved in DMSO and diluted to 0.2% DMSO) were added to the cells at concentrations ranging from 0 to 20 μM. The cells were incubated under standard culture conditions for either 24, 48 or 72 h. Cell viability was as quantitated using the CellTiterGlo Luminescent Cell Viability Assay (Promega) according to the manufacturer’s instructions to measure ATP generated by metabolically active cells. Luminescent signals were measured using an Envision 2103 Multilabel Microplate Reader (PerkinElmer). The luminescence signals obtained from the compound-treated cells were normalized against the signal for DMSO-only treated cells. The IC50 values, calculated from the 48 and 72 h CellTiterGlo data, were generated by non-linear regression using the software GraphPad Prism 7.00 for windows (GraphPad Inc).
(§4) Supplementary Figure 7: The effect of Abd compounds on the viability of cancer cells The effect of the chemical series on the viability of human cancer cells lines DLD -1 (a colorectal cancer cell line with mutant KRAS
(§5) ) and HT1080 (a fibrosarcoma cell line with
(§6) ). The cells were treated with a dose range from […] of either
(§7) Abd-2, Abd-4, Abd-5, Abd-6 and Abd-7 and incubated for 24 or 48 hours. Cell viability was assessed using CellTitreGlo . In each case, the data are normalized to cells treated with DMSO only. Panels a and b are DLD-1 viability and panels c and d are HT1080 viability.
(§8) The IC50 for Abd-7 at 48 & 72 […]
(§9) hours are shown in panel f. Each experiment was repeated at least four times ( a to d).
(§10) Where error bars are presented, they correspond to mean values ± SD of biological repeats.
(§11) (1 picture or pasted object on this page, not shown here)

DLD-1 cells (KRAS^G13D) = experiment: Cell viability (CellTiterGlo), DLD-1; format: cell-based, human; details: DLD-1, 0–20 μM, up to 72 h
Method: as §2, §3, §4, §5, §6, §7, §8, §9, §10, §11

binding to KRAS^G12V-GppNHp (SPR) (KRAS^G12V-GppNHp): bind
SMILES: O=C(NC[C@@H]1COc2ccccc2O1)c1ccco1 [Abd-2b]

binding to KRAS^G12V-GppNHp (SPR) (KRAS^G12V-GppNHp): lower affinity than Abd-2
SMILES: NCC1COc2cc(Cl)ccc2O1 (centres unmarked) [Abd-3]

The remaining lines, values behind:

SMILES: O=C(Nc1ccc2ccccc2n1)c1ccco1 [Abd-1, N-(2-quinolinyl)-2-furamide]
binding to GDP-bound form of HRAS (SPR) (GST-HRAS^G12V-GDP): no binding
binding to HRAS^G12V in complex with anti-RAS scFv (cSPR) [1]: no binding
binding to GST-HRAS^G12V-GTPγS (SPR dose response) (GST-HRAS^G12V-GTPγS; 3 to 2000 μM range): bound and bind
Kd (GST-HRAS^G12V-GTPγS; SPR, estimated, single experimental analysis): > 370 µM
solubility (Solubility): 140 µM (≈ 33.4 µg/mL)

SMILES: O=C(NC[C@H]1COc2ccccc2O1)c1ccco1 [Abd-2a]
binding to KRAS^G12V-GppNHp (SPR) (KRAS^G12V-GppNHp): bind

SMILES: CN(C)CCOc1ccc(C(=O)NCC2COc3ccccc3O2)cc1 (centres unmarked) [Abd-4]
activity in the RAS biosensor BRET assay (RAS-effector PPI): do not show activity
effect on cell viability (HT1080 cells (NRAS^Q61K)): no effect on cell viability
effect on cell viability (DLD-1 cells (KRAS^G13D)): no effect on cell viability
